Reference: patent publication US5288720A, “Angiotensin II receptor blocking 2,3,6 substituted quinazolinones” (American Cyanamid Company, priority 1993, dated 1994)

System: ANGIOTENSIN II VASOPRESSOR RESPONSE
Experiment: AII Challenge: blockade of angiotensin II vasopressor response in conscious SHR
Type: in vivo, rat (Conscious Male Okamoto-Aoki SHR)
Details: SHR n=2
How it was run: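 Conscious male Okamoto-Aoki SHR (16-20 weeks, ~330 g) cannulated in aorta and vena cava under local procaine; angiotensin II (human) 0.05 and 0.1 ug/kg i.v. given before and at 30-300 min after test compound i.v., i.p. or orally. Rise in systolic pressure (mmHg) expressed as % blockade versus each rat's predose response.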

[1] = 3 mg/kg p.o., AII 0.05 mcg/kg IV, 30 min post dose
[2] = 3 mg/kg p.o., AII 0.05 mcg/kg IV, 60 min post dose
[3] = 3 mg/kg p.o., AII 0.05 mcg/kg IV, 90 min post dose
[4] = 3 mg/kg p.o., AII 0.05 mcg/kg IV, 120 min post dose
[5] = 3 mg/kg p.o., AII 0.05 mcg/kg IV, 180 min post dose
[6] = 3 mg/kg p.o., AII 0.1 mcg/kg IV, 30 min post dose
[7] = 3 mg/kg p.o., AII 0.1 mcg/kg IV, 60 min post dose
[8] = 3 mg/kg p.o., AII 0.1 mcg/kg IV, 90 min post dose
[9] = 3 mg/kg p.o., AII 0.1 mcg/kg IV, 120 min post dose
[10] = 3 mg/kg p.o., AII 0.1 mcg/kg IV, 180 min post dose
[11] = 10 mg/kg i.v., AII 0.05 mcg/kg IV, 30 min post dose
[12] = 10 mg/kg i.v., AII 0.05 mcg/kg IV, 60 min post dose
[13] = 10 mg/kg i.v., AII 0.05 mcg/kg IV, 90 min post dose
[14] = 10 mg/kg i.v., AII 0.05 mcg/kg IV, 120 min post dose
[15] = 10 mg/kg i.v., AII 0.05 mcg/kg IV, 180 min post dose
[16] = 10 mg/kg i.v., AII 0.05 mcg/kg IV, 240 min post dose
[17] = 10 mg/kg i.v., AII 0.05 mcg/kg IV, 300 min post dose
[18] = 10 mg/kg i.v., AII 0.1 mcg/kg IV, 30 min post dose
[19] = 10 mg/kg i.v., AII 0.1 mcg/kg IV, 60 min post dose
[20] = 10 mg/kg i.v., AII 0.1 mcg/kg IV, 90 min post dose
[21] = 10 mg/kg i.v., AII 0.1 mcg/kg IV, 120 min post dose
[22] = 10 mg/kg i.v., AII 0.1 mcg/kg IV, 180 min post dose
[23] = 10 mg/kg i.v., AII 0.1 mcg/kg IV, 240 min post dose
[24] = 10 mg/kg i.v., AII 0.1 mcg/kg IV, 300 min post dose

## CCCCc1nc2ccc(C(OC)C3CCCN(C)C3=O)cc2c(=O)n1Cc1ccc(-c2ccccc2-c2nn[nH]n2)cc1 (single isomer, unassigned; isomer 1) [Example 42, 2-Butyl-6-methoxy(1-methyl-2-oxo-3-piperidinyl)methyl]-3-[[2' -1H-tetrazol-5-yl)[1,1'-biphenyl]-4-yl]methyl-4(3H)-quinazolinone isomer 1]
[1]
  % Inhibition of AII vasopressor response: 19%
  Average Change (systolic blood pressure response to AII): 32.5 mmHg
[2]
  % Inhibition of AII vasopressor response: 19%
  Average Change (systolic blood pressure response to AII): 32.5 mmHg
[3]
  % Inhibition of AII vasopressor response: 50%
  Average Change (systolic blood pressure response to AII): 20 mmHg
[4]
  % Inhibition of AII vasopressor response: 19%
  Average Change (systolic blood pressure response to AII): 32.5 mmHg
[5]
  % Inhibition of AII vasopressor response: -2%
  Average Change (systolic blood pressure response to AII): 41 mmHg
[6]
  % Inhibition of AII vasopressor response: 22%
  Average Change (systolic blood pressure response to AII): 35 mmHg
[7]
  % Inhibition of AII vasopressor response: 22%
  Average Change (systolic blood pressure response to AII): 35 mmHg
[8]
  % Inhibition of AII vasopressor response: 13%
  Average Change (systolic blood pressure response to AII): 39 mmHg
[9]
  % Inhibition of AII vasopressor response: 11%
  Average Change (systolic blood pressure response to AII): 40 mmHg
[10]
  % Inhibition of AII vasopressor response: 0%
  Average Change (systolic blood pressure response to AII): 45 mmHg
[11]
  % Inhibition of AII vasopressor response: 100%
  Average Change (systolic blood pressure response to AII): 0 mmHg
[12]
  % Inhibition of AII vasopressor response: 86%
  Average Change (systolic blood pressure response to AII): 5 mmHg
[13]
  % Inhibition of AII vasopressor response: 93%
  Average Change (systolic blood pressure response to AII): 2.5 mmHg
[14]
  % Inhibition of AII vasopressor response: 93%
  Average Change (systolic blood pressure response to AII): 2.5 mmHg
[15]
  % Inhibition of AII vasopressor response: 64%
  Average Change (systolic blood pressure response to AII): 12.5 mmHg
[16]
  % Inhibition of AII vasopressor response: 43%
  Average Change (systolic blood pressure response to AII): 20 mmHg
[17]
  % Inhibition of AII vasopressor response: 43%
  Average Change (systolic blood pressure response to AII): 20 mmHg
[18]
  % Inhibition of AII vasopressor response: 100%
  Average Change (systolic blood pressure response to AII): 0 mmHg
[19]
  % Inhibition of AII vasopressor response: 82%
  Average Change (systolic blood pressure response to AII): 7.5 mmHg
[20]
  % Inhibition of AII vasopressor response: 76%
  Average Change (systolic blood pressure response to AII): 10 mmHg
[21]
  % Inhibition of AII vasopressor response: 65%
  Average Change (systolic blood pressure response to AII): 15 mmHg
[22]
  % Inhibition of AII vasopressor response: 59%
  Average Change (systolic blood pressure response to AII): 17.5 mmHg
[23]
  % Inhibition of AII vasopressor response: 65%
  Average Change (systolic blood pressure response to AII): 15 mmHg
[24]
  % Inhibition of AII vasopressor response: 47%
  Average Change (systolic blood pressure response to AII): 22.5 mmHg
